Measured values from PMC9784924, “Antiviral Activity and Crystal Structures of HIV-1 gp120 Antagonists” (International Journal of Molecular Sciences, 2022).
Where two headings read alike, the source gives them in different places.

Biological target: T1, HIV-1 reverse transcriptase (RT) (HIV-1 M:B_HXB2R, UniProt P04585)
T1 construct: gene gag-pol; enzyme of the Colorimetric Reverse Transcriptase Assay kit (Roche); cut from the Gag-Pol polyprotein; with p51 RT
Type: biochemical
Details: n = 2
Description: Colorimetric Reverse Transcriptase Assay (Roche) on HIV-1 reverse transcriptase (RT)

CC1(C)CC(NC(=O)C(=O)Nc2ccc(Cl)cc2)CC(C)(C)N1 [NBD-556, reference compound] gave an IC50 (control) greater than 300 µM.
Compound NC[C@H](NC(=O)c1ccc(-c2ccc(C(F)(F)F)cn2)[nH]1)c1ncc(CO)s1 [NBD-14204] has an IC50 of 8.3 ± 1.2 µM.
Work on NC[C@H](NC(=O)c1ccc(-c2cc(F)c(Cl)c(F)c2)[nH]1)c1nc(CO)c(CO)s1 [NBD-14208] yielded an IC50 of 5 ± 0.5 µM.
